This note sets out measurements from patent US10689383B2, “Optionally fused heterocyclyl-substituted derivatives of pyrimidine useful for the treatment of inflammatory, metabolic, oncologic and autoimmune diseases” (NUEVOLUTION A/S, priority 2014, dated 2020).

Assay [1] has as its target T1, yeast Gal4-DNA binding domain fused to the ligand binding domain of human RORγ (Homo sapiens, UniProt P51449).
T1 construct: host or cells: HEK293t
T1 sequence (P51449 269-508 limits assumed): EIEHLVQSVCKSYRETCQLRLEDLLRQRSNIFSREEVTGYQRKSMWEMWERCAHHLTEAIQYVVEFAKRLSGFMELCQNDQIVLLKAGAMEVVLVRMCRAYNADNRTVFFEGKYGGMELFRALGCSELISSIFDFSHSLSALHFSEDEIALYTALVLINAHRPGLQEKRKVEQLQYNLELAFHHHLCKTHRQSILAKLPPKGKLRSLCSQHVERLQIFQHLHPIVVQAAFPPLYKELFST
As to the kind of experiment: RORγ Reporter Assay (Gal4). Format: cell-based. The conditions noted are these: values given as lower bounds of ranges; for Gal4 activity range @ 1 μM (% inhibition): RORγ Reporter Assay (Gal4) at 1 μM; for Gal4 activity range @ 0.1 μM (% inhibition): RORγ Reporter Assay (Gal4) at 0.1 μM. In short, it runs like this:
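HEK293t reporter cells expressing the hybrid, with Gal4-UAS-driven firefly luciferase, treated in triplicate with compound at 1,000 nM and 100 nM (0.1% DMSO) in medium with 10% charcoal-stripped FBS for 24 h at 37 °C. Luminescence read; percent reduction of RLU calculated relative to vehicle.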

Assay [2] has as its target T2, human RORγt (Ligand Binding Domain) (Homo sapiens, UniProt P51449).
T2 construct: purchased Crelux (Planegg, Germany) batch no PC5032-1
T2 sequence (P51449 269-508 limits assumed): T1 sequence (P51449 269-508 limits assumed)
As to the kind of experiment: Fluorescence Polarization (FP) Assay. The conditions noted are these: Fluorescence Polarization (FP) Assay; values given as upper bounds of activity ranges; read-out: FP activity range. The method, boiled down:
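In vitro FP binding assay monitoring ligand binding within the ligand binding pocket. Probe is a TAMRA-labelled RORγt ligand (MW 910 g/mole); DMSO served as negative control.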

Assay [3] relates to Th17 cells. As to the kind of experiment: Th17 Assay (IL-17 levels in supernatants by ELISA). The assay is classed as cell-based. The conditions noted are these: Homo sapiens; read-out: Th17 activity range @ 1 μM (% inhibition). The procedure: The activity of the compounds was evaluated using a Fluorescence Polarization (FP) Assay and, in most cases, a Th17 Assay and/or RORγ Reporter assay (also referred to as Gal4 assay). The FP assay is an in vitro assay monitoring binding within the ligand binding pocket. The RORγ and the Th17 assays are both cell-based assays monitoring functional activity of the compound assayed.
Human peripheral blood mononuclear cells (PBMCs) were isolated from buffy coats of healthy human volunteers using the Ficoll paque PLUS kit (GE Healthcare, cat no 17-1440-02), as instructed by the manufacturer. Naive CD4+ T cells were isolated with Naive CD4+ T cell kit, human (Milteny Biotec, cat no 130-094-131). The following modifications were made to the manufacturer's protocol: 1) Incubation with Biotin-Antibody Cocktail and Anti-Biotin MicroBeads was prolonged to 30 minutes, and 2) Cells were washed with 40 mL of Miltenyi buffer. Differentiation of Th17 cells in anti-CD3 (BD Pharmingen, 5 μg/ml) coated 96-well plates (400,000 cells/well, 160 μl RPMI 1640+10% Fetal Bovine Serum) containing 5 μg/ml anti-CD28 (BD Pharmingen), 10 ng/ml IL-2 (R&D Systems), 2.5 ng/ml TGFβ-1 (R&D Systems), 20 ng/ml IL-1β (R&D Systems), 20 ng/ml IL-6 (R&D Systems), 30 ng/ml IL-23 (R&D Systems), 2.5 μg/ml anti-IL-4 (R&D Systems) and 1 μg/ml anti-IFNγ (R&D Systems) and with test compound during the entire differentiation (or vehicle, 0.1% DMSO for control). Test compounds were tested in triplicates, diluted 1000-fold in medium (final DMSO concentration is 0.1%). Incubated for seven days at 37° C., 5% CO2, 95% humidity, and 2-fluoro-4′-[[4-(4-pyridinylmethyl)-1-piperazinyl]methyl]-α,α-bis(trifluoromethyl)-[1,1′-biphenyl]-4-methanol (SR2211 Calbiochem, Cat. No. 557353) was used as positive control. As negative control, cells were differentiated into Th0 using 5 μg/ml anti-CD28 (BD Pharmingen), 10 ng/ml IL-2 (R&D Systems), 2 μg/ml anti-IL4 (R&D Systems) and 2 μg/ml anti-IFNγ (R&D Systems) are negative control. IL-17 levels in supernatants were measured with ELISA (R&D Systems).
In general terms: An ELISA detects its analyte on a solid surface through an enzyme-linked reagent.

What is called inhibition is the change of the read-out against control, counted positive when it falls. For `CC(C)(C)C[C@@H](Nc1ncnc(N2CCC[C@@H]2c2ccc(C(F)(F)F)cc2)c1F)C(N)=O` (single isomer, unassigned) [Example 62, (2R)-2-[[5-fluoro-6-[(2R)-2-[4-(trifluoromethyl)phenyl]pyrrolidin-1-yl]pyrimidin-4-yl]amino]-4,4-dimethyl-pentanamide or (2R)-2-[[5-fluoro-6-[(2S)-2-[4-(trifluoromethyl)phenyl]pyrrolidin-1-yl]pyrimidin-4-yl]amino]-4,4-dimethyl-pentanamide], the “Gal4 activity range @ 1 μM (% inhibition)” value in assay [1] was greater than 80 % inhibition. Moreover, the IC50 in assay [2] is less than 500 nM. In addition, the inhibition at 1 µM in assay [3] was greater than 80%.
On the same counts, the results for `CC(C)(C)C[C@H](CO)Nc1ncnc(N2CCCC2c2ccc(C(F)(F)F)cc2)c1F` (stereo partly drawn) [Example 30, (2R)-2-[[5-fluoro-6-[2-[4-(trifluoromethyl)phenyl]pyrrolidin-1-yl]pyrimidin-4-yl]amino]-4,4-dimethyl-pentan-1-ol] are greater than 80 % inhibition, less than 500 nM and greater than 50%.
Turning to `CC(C)C[C@@H](Nc1ncnc(N2CC(C)CC2c2ccc(C(F)(F)F)cc2)c1F)C(=O)O` (stereo partly drawn) [Example 33, (2R)-2-[[5-fluoro-6-[4-methyl-2-[4-(trifluoromethyl)phenyl]pyrrolidin-1-yl]pyrimidin-4-yl]amino]-4-methyl-pentanoic acid], in assay [2], the IC50 is less than 10000 nM. The inhibition at 1 µM in assay [3] is greater than 20%.
On the same counts, the results for `CC(C)(C)C[C@@H](Nc1ncnc(N2CCCC2c2ccc(C(F)(F)F)cc2Cl)c1F)C(N)=O` (stereo partly drawn) [Example 35, (2R)-2-[[6-[2-[2-chloro-4-(trifluoromethyl)phenyl]pyrrolidin-1-yl]-5-fluoro-pyrimidin-4-yl]amino]-4,4-dimethyl-pentanamide] are less than 500 nM and greater than 50%.
For `CC(C)(C)C[C@@H](Nc1ncnc(N2CCCC2c2ccc(C(F)(F)F)cc2Cl)c1F)C(=O)O` (stereo partly drawn) [Example 36, (2R)-2-[[6-[2-[2-chloro-4-(trifluoromethyl)phenyl]pyrrolidin-1-yl]-5-fluoro-pyrimidin-4-yl]amino]-4,4-dimethyl-pentanoic acid], in that order: less than 2000 nM and greater than 50%.
On the same counts, the results for `CC1CCN(c2ncnc(N[C@H](CC(C)(C)C)C(N)=O)c2F)C1c1ccc(C(F)(F)F)cc1` (stereo partly drawn) [Example 38, (2R)-2-[[5-fluoro-6-[3-methyl-2-[4-(trifluoromethyl)phenyl]pyrrolidin-1-yl]pyrimidin-4-yl]amino]-4,4-dimethyl-pentanamide] are less than 2000 nM and greater than 50%.
On to `NC(=O)Cc1ccc(CNc2ncnc(N3CCCC3c3ccc(C(F)(F)F)cc3)c2F)cc1` (stereo not drawn) [Example 40, 2-[4-[[[5-fluoro-6-[2-[4-(trifluoromethyl)phenyl]pyrrolidin-1-yl]pyrimidin-4-yl]amino]methyl]phenyl]acetamide], for which, in assay [2], the IC50 was less than 1000 nM. Moreover, the inhibition at 1 µM in assay [3] was greater than 80%.
For the compound `COc1ccc(Cn2ccc3c(N4CCCC4c4ccc(C(F)(F)F)cc4)ccnc32)cc1OC` (stereo not drawn) [Example 67, 1-[(3,4-dimethoxyphenyl)methyl]-4-[2-[4-(trifluoromethyl)phenyl]pyrrolidin-1-yl]pyrrolo[2,3-b]pyridine], the “Gal4 activity range @ 1 μM (% inhibition)” value in assay [1] is on record as greater than 80 % inhibition. In addition, the IC50 in assay [2] was less than 2000 nM. Moreover, the inhibition at 1 µM in assay [3] is greater than 80%.
For `O=C(O)Cc1ccc(COc2ncnc(N3CCCC3c3ccc(C(F)(F)F)cc3)c2F)cc1` (stereo not drawn) [Example 79, 2-[4-[[5-fluoro-6-[2-[4-(trifluoromethyl)phenyl]pyrrolidin-1-yl]pyrimidin-4-yl]oxymethyl]phenyl]acetic acid], in that order: greater than 50 % inhibition, less than 500 nM and greater than 50%.
For `O=C(O)Cc1ccc(CNc2ncnc(N3CCC[C@@H]3c3ccc(C(F)(F)F)cc3)c2F)cc1` [Example 81, 2-[4-[[[5-fluoro-6-[(2R)-2-[4-(trifluoromethyl)phenyl]pyrrolidin-1-yl]pyrimidin-4-yl]amino]methyl]phenyl]acetic acid], in that order: greater than 80 % inhibition, less than 500 nM and greater than 80%.
`O=C(O)Cc1ccc(Cn2ccc3c(N4CCCC4c4ccc(C(F)(F)F)cc4)ncnc32)cc1` (stereo not drawn) [Example 85, 2-[4-[[4-[2-[4-(trifluoromethyl)phenyl]pyrrolidin-1-yl]pyrrolo[2,3-d]pyrimidin-7-yl]methyl]phenyl]acetic acid]: the “Gal4 activity range @ 1 μM (% inhibition)” value in assay [1] was greater than 80 % inhibition. Also, the IC50 in assay [2] was less than 500 nM. Besides, the inhibition at 1 µM in assay [3] was greater than 80%.
Consider `N#Cc1ccc(CNc2ncnc(N3CCCC3c3ccc(C(F)(F)F)cc3)c2F)cc1` (stereo not drawn) [Example 88, 4-[[[5-fluoro-6-[2-[4-(trifluoromethyl)phenyl]pyrrolidin-1-yl]pyrimidin-4-yl]amino]methyl]benzonitrile], for which the IC50 in assay [2] was less than 500 nM. Besides, the inhibition at 1 µM in assay [3] was greater than 80%.
For the compound `Cc1ccc(CNc2ncnc(N3CCCC3c3ccc(C(F)(F)F)cc3)c2F)cn1` (stereo not drawn) [Example 89, 5-fluoro-N-[(6-methyl-3-pyridyl)methyl]-6-[2-[4-(trifluoromethyl)phenyl]pyrrolidin-1-yl]pyrimidin-4-amine], in assay [1], the “Gal4 activity range @ 0.1 μM (% inhibition)” value was greater than 20 % inhibition and the “Gal4 activity range @ 1 μM (% inhibition)” value is greater than 80 % inhibition. The IC50 in assay [2] was less than 500 nM. The inhibition at 1 µM in assay [3] was greater than 20%.
On the same counts, the results for `O=C(O)Cc1ccc(CNc2ncnc(N3CCOCC3c3ccc(OC(F)(F)F)cc3)c2F)cc1` (stereo not drawn) [Example 91, 2-[4-[[[5-fluoro-6-[3-[4-(trifluoromethoxy)phenyl]morpholin-4-yl]pyrimidin-4-yl]amino]methyl]phenyl]acetic acid] are greater than 20 % inhibition, greater than 80 % inhibition, less than 500 nM and greater than 80%.
On the same counts, the results for `Fc1c(NCc2ccc(Cn3ccnc3)cc2)ncnc1N1CCCC1c1ccc(C(F)(F)F)cc1` (stereo not drawn) [Example 94, 5-fluoro-N-[[4-(imidazol-1-ylmethyl)phenyl]methyl]-6-[2-[4-(trifluoromethyl)phenyl]pyrrolidin-1-yl]pyrimidin-4-amine] are greater than 80 % inhibition, greater than 80 % inhibition, less than 500 nM and greater than 80%.
